The assay has as its system AP-1 induced transcriptional activity. The assay can be described thus: Cellular Transrepressional Assay: AP-1 luciferase reporter in PMA-activated A549 cells. As to conditions: for Emax: A549, 7 h, read-out: AP-1 Max % inh (Cellular Transrepression Assay). The assay is classed as cell-based. The protocol: Cellular Transrepressional Assay
To measure the ability of test molecules to inhibit AP-1 induced transcriptional activity we utilized an A549 cell which was stably transfected with a plasmid containing 7× AP-1 DNA binding sites (pAP-1-Luc plasmid, Stratagene Co. La Jolla, Calif.) followed by the gene for luciferase. Cells were activated with 10 ng/ml of […] (PMA) plus or minus test molecules for 7 hours. After 7 hours a luciferase reagent was added to measure luciferase enzymatic activity in the cell. After a 10 minute incubation of luciferase reagent with cells, luminescence was measured in a TopCount luminescence counter. Repression of AP-1 activity was calculated as the percentage decrease in the signal induced by PMA alone. Test molecules were analyzed in the concentration range from 0.1 nM to 40 μM. EC50s were determined by using standard curve fitting methods such as Excel fit (Microsoft Co.).
A general note: A reporter such as luciferase makes a cellular process visible.

Where [1] appears, read: Homo sapiens, maximum inhibition, Cellular Transrepression Assay.
Where [2] appears, read: Homo sapiens, A549, Cellular Transrepression Assay.

As usually defined, the EC50 is the concentration that produces a half-maximal response.

For the molecule `CCCCOc1ccc(-c2ccc(C(CC(C)C)C(C)(C)C(=O)Nc3nncs3)cc2)cc1` (stereo not drawn) [Example 442, 3-(4′-butoxy-4-biphenylyl)-2,2,5-trimethyl-N-1,3,4-thiadiazol-2-ylhexanamide], the Emax under setting [1] was 22.7%. This molecule showed an EC50 under setting [2] of 11.7 nM.
In the same order, the values of `COc1ccc([C@@H](c2ccccc2)C(C)(C)C(=O)Nc2nncs2)cc1` [Example 276, (3R)-2,2-dimethyl-3-(4-(methyloxy)phenyl)-3-phenyl-N-1,3,4-thiadiazol-2-ylpropanamide] are 34% and 190 nM.
Taken in the same sequence, the figures for `CC(C)(C(=O)Nc1nncs1)C(c1ccc(N2CCOCC2)cc1)c1cccc(F)c1` (single isomer, unassigned) [Example 255, 3-(3-fluroophenyl)-2,2-dimethyl-3-(4-(4-morpholinyl)phenyl)-N-1,3,4-thiadiazol-2-ylpropanamide] were 43% and 10.2 nM.
In the same order, the values of `CCc1ccc(-c2ccc(C(c3ccccc3)C(C)(C)C(=O)Nc3nncs3)cc2)cc1` (stereo not drawn) [Example 407, 3-(4′-ethyl-4-biphenylyl)-2,2-dimethyl-3-phenyl-N-1,3,4-thiadiazol-2-ylpropanamide] are 37.5% and 14.9 nM.
Molecule `CC(C)(C(=O)Nc1nccs1)C(c1ccccc1)c1ccc(O)c(F)c1` (stereo not drawn) [Example 347, 3-(3-fluoro-4-hydroxyphenyl)-2,2-dimethyl-3-phenyl-N-1,3-thiazol-2-ylpropanamide] gave a half-maximal effective concentration (EC50) (Cellular Transrepression Assay) of 10.8 nM. Besides, for the setting “maximum inhibition, Cellular Transrepression Assay”, the “AP-1 Max % inh (Cellular Transrepression Assay)” value was 55.26%.
As to `CC(C)CC(c1ccc(-c2ccc(OC(C)C)cc2)cc1)C(C)(C)C(=O)Nc1nccs1` (stereo not drawn) [Example 400, 2,2,5-trimethyl-3-(4′-((1-methylethyl)oxy)-4-biphenylyl)-N-1,3-thiazol-2-ylhexanamide], under setting [1], the Emax stood at 46.1%. The response under setting [2] was half-maximal at 267 nM (EC50).
On to `CC(C)(C(=O)Nc1nccs1)[C@@H](c1ccccc1)c1ccc(O)c(Br)c1` [Example 350, (3S)-3-(3-bromo-4-hydroxyphenyl)-2,2-dimethyl-3-phenyl-N-1,3-thiazol-2-ylpropanamide], for which the Emax under setting [1] was determined as 81.8%. The molecule also yielded an EC50 under setting [2] of 15 nM.
Taken in the same sequence, the figures for `CC(C)(C(=O)Nc1nncs1)C(c1ccccc1)c1ccc(-c2ccc(Cl)cc2)cc1` (stereo not drawn) [Example 403, 3-(4′-chloro-4-biphenylyl)-2,2-dimethyl-3-phenyl-N-1,3,4-thiadiazol-2-ylpropanamide] were 24.9% and 3.03 nM.
As to `CC(C)(C(=O)Nc1nc2ccc(Cl)cc2s1)C(c1ccccc1)c1ccc(O)cc1` (stereo not drawn) [Example 220, N-(6-chloro-1,3-benzothiazol-2-yl)-3-(4-hydroxyphenyl)-2,2-dimethyl-3-phenylpropanamide], the Emax under setting [1] was found to be 36.2%.
Take `COc1ccc(C(c2ccc(OC)cc2)C(C)(C)C(=O)Nc2nc(Cc3ccc(-c4ccncc4)cc3)cs2)cc1` [Example 304, 2,2-dimethyl-3,3-bis(4-(methyloxy)phenyl)-N-(4-((4-(4-pyridinyl)phenyl)methyl)-1,3-thiazol-2-yl)propanamide]: the Emax under setting [1] is 74.5%. Besides, under setting [2], the concentration giving a half-maximal response (EC50) turned out to be 19.9 nM.
In the same order, the values of `CC(C)(C(=O)Nc1nncs1)C(c1ccccc1)c1ccc(-c2ccccc2)cc1` (stereo not drawn) [Example 402, 3-(4-biphenylyl)-2,2-dimethyl-3-phenyl-N-1,3,4-thiadiazol-2-ylpropanamide] are 26.5% and 7.9 nM.
For `CC(C)(C(=O)Nc1nccs1)C(c1ccc(O)cc1)c1ccc(O)cc1` [Example 186, 3,3-bis(4-hydroxyphenyl)-2,2-dimethyl-N-1,3-thiazol-2-ylpropanamide], the Emax under setting [1] was determined as 20.5%.
Take `CC(C)(C(=O)Nc1nc(Cc2ccc(-c3ccncc3)cc2)cs1)C(c1ccccc1)c1ccc(O)cc1` (stereo not drawn) [Example 353, 3-(4-hydroxyphenyl)-2,2-dimethyl-3-phenyl-N-(4-((4-(4-pyridinyl)phenyl)methyl)-1,3-thiazol-2-yl)propanamide]: under setting [1], the Emax amounted to 77.8%. The response under setting [2] was half-maximal at 100 nM (EC50).
Taken in the same sequence, the figures for `CC(C)(C(=O)Nc1nncs1)[C@@H](c1ccccc1)c1ccc(O)c(Br)c1` [Example 351, (3S)-3-(3-bromo-4-hydroxyphenyl)-2,2-dimethyl-3-phenyl-N-1,3,4-thiadiazol-2-ylpropanamide] were 66% and 16.4 nM.
In the same order, the values of `CC(C)c1cccc(-c2ccc(C(c3ccccc3)C(C)(C)C(=O)Nc3nncs3)cc2)c1` (stereo not drawn) [Example 423, 3-(3′-isopropyl-4-biphenylyl)-2,2-dimethyl-3-phenyl-N-1,3,4-thiadiazol-2-ylpropanamide] are 34.8% and 6.07 nM.
On to `CC(C)(C(=O)Nc1nc(-c2cccc3ccccc23)cs1)C(c1ccccc1)c1ccc(O)cc1` (stereo not drawn) [Example 217, 3-(4-hydroxyphenyl)-2,2-dimethyl-N-(4-(1-naphthalenyl)-1,3-thiazol-2-yl)-3-phenylpropanamide], for which, under setting [1], the Emax worked out at 35%. Under setting [2], this molecule gave a concentration for a half-maximal effect (EC50) of 516 nM.
On to `CCOC(=O)/C(=N/OC)c1csc(NC(=O)C(C)(C)C(c2ccccc2)c2ccccc2)n1` [Example 49, ethyl (2E)-(2-((2,2-dimethyl-3,3-diphenylpropanoyl)amino)-1,3-thiazol-4-yl)((methyloxy)imino)ethanoate], for which, under setting [1], the Emax came to 20.1%.
`CC(C)(C(=O)Nc1nncs1)[C@H](c1ccccc1)c1ccc(O)cc1` [Example 340, (3R)-3-(4-hydroxyphenyl)-2,2-dimethyl-3-phenyl-N-1,3,4-thiadiazol-2-ylpropanamide]: the Emax under setting [1] was found to be 57%. Under setting [2], this molecule had a concentration giving a half-maximal response (EC50) of 90.3 nM.
In the same order, the values of `CC(C)(C(=O)Nc1nccs1)C(c1ccc(N2CCOCC2)cc1)c1cccc(F)c1` (stereo not drawn) [Example 228, 3-(3-fluorophenyl)-2,2-dimethyl-3-(4-(4-morpholinyl)phenyl)-N-1,3-thiazol-2-ylpropanamide] are 36.9% and 33.5 nM.
For the molecule `CC(C)(C(=O)Nc1nc(Cc2ccc(-c3ccncc3)cc2)cs1)C(c1ccccc1)c1ccc(Cl)cc1` (stereo not drawn) [Example 301, 3-(4-chlorophenyl)-2,2-dimethyl-3-phenyl-N-(4-((4-(4-pyridinyl)phenyl)methyl)-1,3-thiazol-2-yl)propanamide], the Emax under setting [1] was found to be 73.7%. For the same molecule, under setting [2], it took 10.2 nM to reach a half-maximal effect (EC50).
In the same order, the values of `COc1ccc(Cc2csc(NC(=O)C(C)(C)C(c3ccccc3)c3ccc(OC)cc3)n2)cc1` (stereo not drawn) [Example 288, 2,2-dimethyl-3-(4-(methyloxy)phenyl)-N-(4-((4-(methyloxy)phenyl)methyl)-1,3-thiazol-2-yl)-3-phenylpropanamide] are 62.2% and 216 nM.
Taken in the same sequence, the figures for `CC(C)CC(c1ccc(-c2ccc(OC(C)C)cc2)cc1)C(C)(C)C(=O)Nc1nncs1` (stereo not drawn) [Example 395, 2,2,5-trimethyl-3-(4′-((1-methylethyl)oxy)-4-biphenylyl)-N-1,3,4-thiadiazol-2-ylhexanamide] were 32.5% and 13.4 nM.
`COc1cccc(C(c2ccccc2)C(C)(C)C(=O)Nc2nc(CCc3ccccc3)cs2)c1` (stereo not drawn) [Example 97, 2,2-dimethyl-3-(3-(methyloxy)phenyl)-3-phenyl-N-(4-(2-phenylethyl)-,3-thiaozl-2-yl)propanamide]: under setting [1], the Emax stood at 26.5%.
